One series has as its target T1, human TLR9 (Homo sapiens, UniProt Q9NR96).
T1 construct: host or cells: HEK293 (HEK-Blue hTLR9)
T1 sequence (Q9NR96 26-1032): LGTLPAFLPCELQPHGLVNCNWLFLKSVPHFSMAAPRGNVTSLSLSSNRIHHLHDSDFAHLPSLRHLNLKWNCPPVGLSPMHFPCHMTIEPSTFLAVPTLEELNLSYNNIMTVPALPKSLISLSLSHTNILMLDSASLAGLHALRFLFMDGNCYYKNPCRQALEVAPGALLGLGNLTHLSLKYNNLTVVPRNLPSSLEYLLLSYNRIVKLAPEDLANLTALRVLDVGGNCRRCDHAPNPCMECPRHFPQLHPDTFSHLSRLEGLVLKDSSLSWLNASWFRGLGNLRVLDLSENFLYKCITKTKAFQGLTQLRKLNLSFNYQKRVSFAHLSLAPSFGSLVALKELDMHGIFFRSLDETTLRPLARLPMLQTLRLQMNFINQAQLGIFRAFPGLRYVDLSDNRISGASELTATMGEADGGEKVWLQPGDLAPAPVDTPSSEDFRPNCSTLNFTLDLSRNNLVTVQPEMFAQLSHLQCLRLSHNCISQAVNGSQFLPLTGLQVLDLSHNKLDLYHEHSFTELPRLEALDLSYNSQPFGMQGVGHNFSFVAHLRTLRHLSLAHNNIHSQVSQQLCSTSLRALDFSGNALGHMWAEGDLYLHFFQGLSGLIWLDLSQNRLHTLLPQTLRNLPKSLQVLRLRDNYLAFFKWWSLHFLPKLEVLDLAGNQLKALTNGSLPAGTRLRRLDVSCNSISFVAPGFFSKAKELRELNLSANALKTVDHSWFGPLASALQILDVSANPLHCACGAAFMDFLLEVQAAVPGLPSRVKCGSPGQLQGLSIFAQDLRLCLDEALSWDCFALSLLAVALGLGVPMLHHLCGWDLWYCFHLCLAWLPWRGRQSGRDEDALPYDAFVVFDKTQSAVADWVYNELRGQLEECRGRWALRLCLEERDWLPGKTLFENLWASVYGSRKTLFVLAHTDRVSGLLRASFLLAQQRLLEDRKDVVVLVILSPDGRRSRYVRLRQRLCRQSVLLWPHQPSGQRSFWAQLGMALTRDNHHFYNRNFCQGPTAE
The series is described as follows: HEK293-Blue-hTLR-9 cells assay. It is filed as cell-based. The settings on record: HEK293-Blue-hTLR9 cells, ODN2006 stimulation, 20 hrs, SEAP reporter; read-out: HEK/hTLR9 IC50. As to the method: The following tests were carried out in order to determine the activity of the compounds of formula (I) and (Ia) in HEK293-Blue-hTLR-7/8/9 cells assay.
HEK293-Blue-hTLR-9 Cells Assay:
A stable HEK293-Blue-hTLR-9 cell line was purchased from InvivoGen (Cat. #: hkb-htlr9, San Diego, Calif., USA). These cells were originally designed for studying the stimulation of human TLR9 by monitoring the activation of NF-κB. A SEAP (secreted embryonic alkaline phosphatase) reporter gene was placed under the control of the […] minimal promoter fused to five NF-κB and AP-1-binding sites. The SEAP was induced by activating NF-κB and AP-1 via stimulating HEK-Blue hTLR9 cells with TLR9 ligands. Therefore, the reporter expression was declined by TLR9 antagonist under the stimulation of a ligand, such as ODN2006 (Cat. #: tlr1-2006-1, Invivogen, San Diego, Calif., USA), for incubation of 20 hrs. The cell culture supernatant SEAP reporter activity was determined using QUANTI-Blue™ kit (Cat. #: rep-qb1, Invivogen, San Diego, Calif., USA) at a wavelength of 640 nm, a detection medium that turns purple or blue in the presence of alkaline phosphatase.
Then 20 μL of the supernatant from each well was incubated with 180 μL Quanti-blue substrate solution at 37° C. for 2 h and the absorbance was read at 620-655 nm using a spectrophotometer. The signaling pathway that TLR9 activation leads to downstream NF-κB activation has been widely accepted, and therefore similar reporter assay was modified for evaluating TLR9 antagonist.

The next series addresses T2, hERG channel (Homo sapiens, UniProt Q12809).
T2 construct: expressed in transfected cells; host or cells: CHO (Chinese hamster ovary), CHOhERG
The series is described as follows: hERG channel inhibition assay (patch-clamp, CHOhERG cells). The series is classed as cell-based. The settings on record: CHOhERG cells, whole-cell patch-clamp; for IC20: human, CHO cells stably expressing hERG (CHOhERG). As to the method: hERG Channel Inhibition Assay:
The hERG K^+ channels were cloned in humans and stably expressed in a CHO (Chinese hamster ovary) cell line. CHOhERG cells were used for patch-clamp (voltage-clamp, whole-cell) experiments. Cells were stimulated by a voltage pattern to activate hERG channels and conduct IKhERG currents (rapid delayed outward rectifier potassium current of the hERG channel). After the cells were stabilized for a few minutes, the amplitude and kinetics of IKhERG were recorded at a stimulation frequency of 0.1 Hz (6 bpm). Thereafter, the test compound was added to the preparation at increasing concentrations. For each concentration, an attempt was made to reach a steady-state effect, usually, this was achieved within 3-10 min at which time the next highest concentration was applied. The amplitude and kinetics of IKhERG are recorded in each concentration of the drug which were compared to the control values (taken as 100%). (references: Redfern W S, Carlsson L, Davis A S, Lynch W G, MacKenzie I, Palethorpe S, Siegl P K, Strang I, Sullivan A T, Wallis R, Camm A J, Hammond T G. 2003; Relationships between preclinical cardiac electrophysiology, clinical QT interval prolongation and torsade de pointes for a broad range of drugs: evidence for a provisional safety margin in drug development. Cardiovasc. Res. 58:32-45, Sanguinetti M C, Tristani-Firouzi M. 2006; hERG potassium channels and cardiac arrhythmia. Nature 440:463-469, Webster R, Leishman D, Walker D. 2002; Towards a drug concentration effect relationship for QT prolongation and torsades de pointes. Curr. Opin. Drug Discov. Devel. 5:116-26).
The calculation of hERG IC20/TLR7/8/9 IC50 below serves as early selectivity index to assess hERG liability.
For orientation: hERG is a cardiac potassium channel; its block is linked to QT prolongation.

T2 sequence (Q12809 whole entry): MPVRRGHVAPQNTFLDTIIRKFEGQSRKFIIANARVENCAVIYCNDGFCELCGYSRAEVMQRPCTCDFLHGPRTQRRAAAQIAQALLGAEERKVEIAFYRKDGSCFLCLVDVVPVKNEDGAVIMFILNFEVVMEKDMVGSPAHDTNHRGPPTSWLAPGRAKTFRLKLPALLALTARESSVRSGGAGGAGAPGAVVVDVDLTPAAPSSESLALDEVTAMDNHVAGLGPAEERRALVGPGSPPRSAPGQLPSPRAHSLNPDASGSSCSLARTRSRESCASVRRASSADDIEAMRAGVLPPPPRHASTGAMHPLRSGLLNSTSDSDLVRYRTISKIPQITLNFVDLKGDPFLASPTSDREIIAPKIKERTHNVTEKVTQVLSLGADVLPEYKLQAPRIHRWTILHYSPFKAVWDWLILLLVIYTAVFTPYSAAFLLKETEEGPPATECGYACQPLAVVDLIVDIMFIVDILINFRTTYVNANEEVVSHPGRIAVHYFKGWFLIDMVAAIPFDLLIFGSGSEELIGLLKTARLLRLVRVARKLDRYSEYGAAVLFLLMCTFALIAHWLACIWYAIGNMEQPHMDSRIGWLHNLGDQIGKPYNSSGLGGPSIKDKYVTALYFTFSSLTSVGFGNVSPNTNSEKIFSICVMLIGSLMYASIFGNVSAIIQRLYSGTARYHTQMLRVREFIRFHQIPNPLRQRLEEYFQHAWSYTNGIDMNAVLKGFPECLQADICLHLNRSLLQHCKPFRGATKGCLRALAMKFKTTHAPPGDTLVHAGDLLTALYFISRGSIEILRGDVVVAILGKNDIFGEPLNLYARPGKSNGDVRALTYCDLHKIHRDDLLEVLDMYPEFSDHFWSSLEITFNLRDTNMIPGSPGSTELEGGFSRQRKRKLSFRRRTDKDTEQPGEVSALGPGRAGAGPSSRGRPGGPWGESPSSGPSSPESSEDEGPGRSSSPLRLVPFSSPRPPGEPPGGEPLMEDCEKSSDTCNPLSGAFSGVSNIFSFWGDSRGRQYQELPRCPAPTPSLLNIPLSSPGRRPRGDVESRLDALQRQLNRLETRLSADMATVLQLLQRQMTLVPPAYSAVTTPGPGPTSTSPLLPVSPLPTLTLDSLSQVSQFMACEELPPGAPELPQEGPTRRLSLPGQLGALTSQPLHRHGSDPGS

As to `C[C@@H]1CN(c2ccc(C#N)c3ncccc23)C[C@@H]2CN(c3cncc4c3CCNC4)CCN21` [Example 44, 5-[(4R,9aR)-4-methyl-8-(5,6,7,8-tetrahydro-2,7-naphthyridin-4-yl)-3,4,6,7,9,9a-hexahydro-1H-pyrazino[1,2-a]pyrazin-2-yl]quinoline-8-carbonitrile], the IC50 at human TLR9 was 50 nM.

Take `[2H]c1ccc2c(N3C[C@@H]4CN(CCc5ccc(N6C[C@@H](N)[C@@H](F)C6)nc5)CCN4[C@H](C)C3)ccc(C#N)c2n1` [Example 63, 5-[(4R,9aS)-8-[2-[6-[(3R,4S)-3-amino-4-fluoro-pyrrolidin-1-yl]-3-pyridyl]ethyl]-4-methyl-3,4,6,7,9,9a-hexahydro-1H-pyrazino[1,2-a]pyrazin-2-yl]-2-deuterio-quinoline-8-carbonitrile]: the IC50 at human TLR9 is 78 nM. Take `C[C@@H]1CN(c2ccc(C#N)c3ncccc23)C[C@@H]2CN(CCc3ccc(N4C[C@@H](N)[C@H](F)C4)nc3)CCN21` [Example 18, 5-[(4R,9aS)-8-[2-[6-[(3R,4R)-3-amino-4-fluoro-pyrrolidin-1-yl]-3-pyridyl]ethyl]-4-methyl-3,4,6,7,9,9a-hexahydro-1H-pyrazino[1,2-a]pyrazin-2-yl]quinoline-8-carbonitrile]: at human TLR9, the IC50 turned out to be 65 nM. Take `[2H]c1ccc2c(N3C[C@@H]4CN(c5ncc(N6CCOC[C@H](N)C6)cc5C)CCN4[C@@H](C)C3)ccc(C#N)c2n1` [Example 110, 5-[(4S,9aR)-8-[5-[(6R)-6-amino-1,4-oxazepan-4-yl]-3-methyl-2-pyridyl]-4-methyl-3,4,6,7,9,9a-hexahydro-1H-pyrazino[1,2-a]pyrazin-2-yl]-2-deuterio-quinoline-8-carbonitrile]: the IC50 on human TLR9 was 70 nM. Consider `[2H]c1ccc2c(N3C[C@@H]4CN(c5ncc(N6CC7(CC(N)C7)C6)cc5C)CCN4[C@H](C)C3)ccc(C#N)c2n1` [Example 101, 5-[(4R,9aR)-8-[5-(6-amino-2-azaspiro[3.3]heptan-2-yl)-3-methyl-2-pyridyl]-4-methyl-3,4,6,7,9,9a-hexahydro-1H-pyrazino[1,2-a]pyrazin-2-yl]-2-deuterio-quinoline-8-carbonitrile], for which, on human TLR9, the IC50 stood at 81 nM. With `C[C@@H]1CN(c2ccc(C#N)c3ncccc23)C[C@H]2CN(c3cncc4c3CCNC4)CCN21` [Example 42, 5-[(4R,9aS)-4-methyl-8-(5,6,7,8-tetrahydro-2,7-naphthyridin-4-yl)-3,4,6,7,9,9a-hexahydro-1H-pyrazino[1,2-a]pyrazin-2-yl]quinoline-8-carbonitrile], the values for the IC50 on human TLR9 and at hERG channel were 50 nM and over 10000 nM, respectively. Besides, the 20% effect level at hERG channel (IC20) was put at 4350 nM. Consider `C[C@@H]1CN(c2ccc(C#N)c3ncccc23)C[C@@H]2CN(CCc3ccc(N4C[C@@H](N)[C@@H](F)C4)nc3)CCN21` [Example 17, 5-[(4R,9aS)-8-[2-[6-[(3R,4S)-3-amino-4-fluoro-pyrrolidin-1-yl]-3-pyridyl]ethyl]-4-methyl-3,4,6,7,9,9a-hexahydro-1H-pyrazino[1,2-a]pyrazin-2-yl]quinoline-8-carbonitrile], for which, at human TLR9, the IC50 came out at 47 nM. On hERG channel, the IC50 is over 20000 nM and the IC20 – broadly, the concentration at which the effect reaches the 20% level – is over 10000 nM. On to `C[C@@H]1CN(c2ccc(C#N)c3ncccc23)C[C@H]2CN(c3cccc4c3CCNC4)CCN21` (relative stereo) [Example 47], for which the IC50 at human TLR9 came to 117 nM.
